In patent US11419826B2, “Surface-modified mesoporous silica nanoparticle for blood-brain barrier penetration,tumor targeting and cancer metastasis treatment, methods of production and uses thereof” (NANO TARGETING & THERAPY BIOPHARMA INC., priority 2019, dated 2022):

Legend:
U87-LUC glioma cells = assay: U87-LUC orthotopic glioma xenograft mouse model; format: in vivo; details: Dox 10 mg/kg i.v. every 4 days for 3 times
Protocol: U87-LUC glioma cells were cultured at 37° C. in a humidified 5% CO2 atmosphere in minimum essential median (MEM) supplemented with 10% fetal bovine serum and 1% penicillin/streptomycin (Invitrogen). Cells were harvested by trypsinization, washed once with phosphate-buffered saline (PBS), and re-suspended (1×10^5 cell/μL) in MEM for subsequent implantation into the striatum of mouse brains. Pathogen-free male NU/NU mice (5 to 7 weeks old) were purchased from BioLASCO (Taiwan). Mice were housed and maintained in a controlled environment and all procedures were performed in accordance with the experimental animal care guidelines of the Animal Committee of Chang Gung University. To implant U87-LUC tumor cells, animals were anesthetized with 2% isoflurane gas and immobilized on a stereotactic frame. […] The growth of the brain tumor was monitored by IVIS and MRI.
Dox is a well-known anti-cancer drug approved for treatment of multiple cancers. […] To evaluate the efficacy of Dox@MSN-PEG+TA anti-brain tumor in vivo, the U87-LUC brain cells were implanted orthotopically into nude mice to serve as the U87-LUC xenograft mouse model; U87-LUC cells can express luciferase for quantification of tumor cells in vivo. […] The distribution of MSN-PEG+TA and Dox@MSN-PEG+TA in brain tissue and tumor were assessed from the tumor sections from nanoparticle treated mice. […]

[1] = Pharmacokinetics and quantification of Dox accumulation in plasma and brain; details: single i.v. dose, Dox 7.5 mg/kg; after 15 minutes
Protocol: Healthy balb/c mice were single dose intravenously injected with Dox or Dox@NTT0_18 at 7.5 mg/kg. To determine the Dox concentration in plasma and brain, blood samples were taken at 15, 30, 60, 180, 360 and 1440 minutes after injection, and after the blood samples were taken, each animal was sacrificed and perfused with PBS to obtain the brain. Dox was extracted from the samples (plasma and brain respectively) for the determination of dox concentration with a spectrophotometer.
Mice received a single dose of Dox or Dox@NTT0_18 (MSN-PEG+TA-loaded Dox) through intravenous injection (all at Dox dose 7.5 mg/kg). To determine the Dox concentration in plasma and brain, blood samples were taken at 15, 30, 60, 180, 360 and 1440 minutes after injection and animals were sacrificed and perfused with PBS at each time point. Dox was extracted from plasma and brain and the Dox concentration was measured using a spectrophotometer. The concentration versus time curves of Dox in plasma with and without MSN-PEG+TA encapsulated was also established.

Compound: COc1cccc2c1C(=O)c1c(O)c3c(c(O)c1C2=O)C[C@@](O)(C(=O)CO)C[C@@H]3O[C@H]1C[C@H](N)[C@H](O)[C@H](C)O1 [Dox, doxorubicin]
- toxicity / body weight of treated mice (U87-LUC glioma cells): causes death of the host
- tumor size (U87-LUC glioma cells; during the treatment period): shrunk during the treatment period
- Dox concentration in plasma [1]: lower than 0.2 μg/mL
